No end group written: not given here.
Tested on: A. thaliana seedlings
Experiment: Seedling growth inhibition (fresh weight)
Type: in vivo, Arabidopsis thaliana
Conditions: mock mean = 1
Experimental: Four-day-old seedlings growing on MS plates were transferred individually into separate wells of transparent 48-well tissue culture plates (Greiner Bio-One) containing 500 μL of liquid MS media with/without elicitor addition. The plates were then transferred back to the growth conditions for an additional 10 days before seedlings were blot-dried and weighed.

Q: For FTGPSGSGHGGGR [SCOOP10], which “Seedling fresh weight (Fig3C), relative to mock” value (Col-0, 1 μM, replicate 1) is on record?
A: 1.053

Q: What about the “Seedling fresh weight (Fig3C), relative to mock” value (Col-0, 1 μM, replicate 2) of the same sequence?
A: 0.7731

Q: And the “Seedling fresh weight (Fig3C), relative to mock” value (Col-0, 1 μM, replicate 3)?
A: 0.8401

Q: What about the “Seedling fresh weight (Fig3C), relative to mock” value (Col-0, 1 μM, replicate 4) of the same sequence?
A: 1.102

Q: And the “Seedling fresh weight (Fig3C), relative to mock” value (Col-0, 1 μM, replicate 5)?
A: 0.9923

Q: What about the “Seedling fresh weight (Fig3C), relative to mock” value (Col-0, 1 μM, replicate 6) of the same sequence?
A: 0.9101

Q: What about the “Seedling fresh weight (Fig3C), relative to mock” value (Col-0, 1 μM, replicate 7) of the same sequence?
A: 0.9071

Q: What about the “Seedling fresh weight (Fig3C), relative to mock” value (Col-0, 1 μM, replicate 8) of the same sequence?
A: 0.8705

Q: What about the “Seedling fresh weight (Fig3C), relative to mock” value (Col-0, 1 μM, replicate 9) of the same sequence?
A: 0.8462

Q: What about the “Seedling fresh weight (Fig3C), relative to mock” value (Col-0, 1 μM, replicate 10) of the same sequence?
A: 0.7792

Q: What about the “Seedling fresh weight (Fig3C), relative to mock” value (Col-0, 1 μM, replicate 11) of the same sequence?
A: 0.9497

Q: And the “Seedling fresh weight (Fig3C), relative to mock” value (Col-0, 1 μM, replicate 12)?
A: 0.9679

Q: What about the “Seedling fresh weight (Fig3C), relative to mock” value (Col-0, 10 μM, replicate 1) of the same sequence?
A: 0.6611

Q: And the “Seedling fresh weight (Fig3C), relative to mock” value (Col-0, 10 μM, replicate 2)?
A: 0.655

Q: And the “Seedling fresh weight (Fig3C), relative to mock” value (Col-0, 10 μM, replicate 3)?
A: 0.649

Q: What about the “Seedling fresh weight (Fig3C), relative to mock” value (Col-0, 10 μM, replicate 4) of the same sequence?
A: 0.4731

Q: What about the “Seedling fresh weight (Fig3C), relative to mock” value (Col-0, 10 μM, replicate 5) of the same sequence?
A: 0.5034

Q: And the “Seedling fresh weight (Fig3C), relative to mock” value (Col-0, 10 μM, replicate 6)?
A: 0.7187

Q: What about the “Seedling fresh weight (Fig3C), relative to mock” value (Col-0, 10 μM, replicate 7) of the same sequence?
A: 0.652

Q: And the “Seedling fresh weight (Fig3C), relative to mock” value (Col-0, 10 μM, replicate 8)?
A: 0.7096

Q: What about the “Seedling fresh weight (Fig3C), relative to mock” value (Col-0, 10 μM, replicate 9) of the same sequence?
A: 0.5944

Q: And the “Seedling fresh weight (Fig3C), relative to mock” value (Col-0, 10 μM, replicate 10)?
A: 0.5519

Q: What about the “Seedling fresh weight (Fig3C), relative to mock” value (Col-0, 10 μM, replicate 11) of the same sequence?
A: 0.555

Q: And the “Seedling fresh weight (Fig3C), relative to mock” value (Col-0, 10 μM, replicate 12)?
A: 0.6884

Q: What about the “Seedling fresh weight (Fig3C), relative to mock” value (mik2-1, 1 μM, replicate 1) of the same sequence?
A: 0.8644

Q: And the “Seedling fresh weight (Fig3C), relative to mock” value (mik2-1, 1 μM, replicate 2)?
A: 1.019

Q: And the “Seedling fresh weight (Fig3C), relative to mock” value (mik2-1, 1 μM, replicate 3)?
A: 1.022

Q: And the “Seedling fresh weight (Fig3C), relative to mock” value (mik2-1, 1 μM, replicate 4)?
A: 0.7702

Q: What about the “Seedling fresh weight (Fig3C), relative to mock” value (mik2-1, 1 μM, replicate 5) of the same sequence?
A: 0.8139

Q: And the “Seedling fresh weight (Fig3C), relative to mock” value (mik2-1, 1 μM, replicate 6)?
A: 0.8307

Q: What about the “Seedling fresh weight (Fig3C), relative to mock” value (mik2-1, 1 μM, replicate 7) of the same sequence?
A: 0.9619

Q: And the “Seedling fresh weight (Fig3C), relative to mock” value (mik2-1, 1 μM, replicate 8)?
A: 1.049

Q: And the “Seedling fresh weight (Fig3C), relative to mock” value (mik2-1, 1 μM, replicate 9)?
A: 1.086

Q: And the “Seedling fresh weight (Fig3C), relative to mock” value (mik2-1, 1 μM, replicate 10)?
A: 1.002

Q: And the “Seedling fresh weight (Fig3C), relative to mock” value (mik2-1, 1 μM, replicate 11)?
A: 1.026

Q: And the “Seedling fresh weight (Fig3C), relative to mock” value (mik2-1, 1 μM, replicate 12)?
A: 1.123

Q: And the “Seedling fresh weight (Fig3C), relative to mock” value (mik2-1, 10 μM, replicate 1)?
A: 0.8284

Q: And the “Seedling fresh weight (Fig3C), relative to mock” value (mik2-1, 10 μM, replicate 2)?
A: 1.096

Q: And the “Seedling fresh weight (Fig3C), relative to mock” value (mik2-1, 10 μM, replicate 3)?
A: 0.9366

Q: What about the “Seedling fresh weight (Fig3C), relative to mock” value (mik2-1, 10 μM, replicate 4) of the same sequence?
A: 0.8791

Q: What about the “Seedling fresh weight (Fig3C), relative to mock” value (mik2-1, 10 μM, replicate 5) of the same sequence?
A: 0.9096

Q: And the “Seedling fresh weight (Fig3C), relative to mock” value (mik2-1, 10 μM, replicate 6)?
A: 0.8453

Q: What about the “Seedling fresh weight (Fig3C), relative to mock” value (mik2-1, 10 μM, replicate 7) of the same sequence?
A: 0.967

Q: What about the “Seedling fresh weight (Fig3C), relative to mock” value (mik2-1, 10 μM, replicate 8) of the same sequence?
A: 0.94

Q: What about the “Seedling fresh weight (Fig3C), relative to mock” value (mik2-1, 10 μM, replicate 9) of the same sequence?
A: 0.9806

Q: And the “Seedling fresh weight (Fig3C), relative to mock” value (mik2-1, 10 μM, replicate 10)?
A: 0.896

Q: And the “Seedling fresh weight (Fig3C), relative to mock” value (mik2-1, 10 μM, replicate 11)?
A: 1.031

Q: What about the “Seedling fresh weight (Fig3C), relative to mock” value (mik2-1, 10 μM, replicate 12) of the same sequence?
A: 1.096

From publication PMC7846792, “Perception of a divergent family of phytocytokines by the Arabidopsis receptor kinase MIK2” (Nature Communications, 2021)
